Literature values as cited in patent publication US20120101005A1, “METHODS FOR PREDICTING THE TOXICITY OF A CHEMICAL” (GE HEALTHCARE UK LIMITED, priority 2009, published 2012).
Like-named read-outs stand apart in the source and are kept apart here.

Key:
[1] = test system: PDGF receptor
[2] = biological target: p140 trk tyrosine kinase NGF-receptor (Rattus norvegicus, UniProt P35739); conditions: read-out: IC50, p140 trk NGF-receptor autophosphorylation
[3] = test system: rat PC12 cells; conditions: for NGF-induced neuronal differentiation of PC12 cells: monitored by generation of neurite processes
[4] = biological target: EGF receptor (Homo sapiens, UniProt P00533)
EGF receptor, sequence (P00533 25-1210): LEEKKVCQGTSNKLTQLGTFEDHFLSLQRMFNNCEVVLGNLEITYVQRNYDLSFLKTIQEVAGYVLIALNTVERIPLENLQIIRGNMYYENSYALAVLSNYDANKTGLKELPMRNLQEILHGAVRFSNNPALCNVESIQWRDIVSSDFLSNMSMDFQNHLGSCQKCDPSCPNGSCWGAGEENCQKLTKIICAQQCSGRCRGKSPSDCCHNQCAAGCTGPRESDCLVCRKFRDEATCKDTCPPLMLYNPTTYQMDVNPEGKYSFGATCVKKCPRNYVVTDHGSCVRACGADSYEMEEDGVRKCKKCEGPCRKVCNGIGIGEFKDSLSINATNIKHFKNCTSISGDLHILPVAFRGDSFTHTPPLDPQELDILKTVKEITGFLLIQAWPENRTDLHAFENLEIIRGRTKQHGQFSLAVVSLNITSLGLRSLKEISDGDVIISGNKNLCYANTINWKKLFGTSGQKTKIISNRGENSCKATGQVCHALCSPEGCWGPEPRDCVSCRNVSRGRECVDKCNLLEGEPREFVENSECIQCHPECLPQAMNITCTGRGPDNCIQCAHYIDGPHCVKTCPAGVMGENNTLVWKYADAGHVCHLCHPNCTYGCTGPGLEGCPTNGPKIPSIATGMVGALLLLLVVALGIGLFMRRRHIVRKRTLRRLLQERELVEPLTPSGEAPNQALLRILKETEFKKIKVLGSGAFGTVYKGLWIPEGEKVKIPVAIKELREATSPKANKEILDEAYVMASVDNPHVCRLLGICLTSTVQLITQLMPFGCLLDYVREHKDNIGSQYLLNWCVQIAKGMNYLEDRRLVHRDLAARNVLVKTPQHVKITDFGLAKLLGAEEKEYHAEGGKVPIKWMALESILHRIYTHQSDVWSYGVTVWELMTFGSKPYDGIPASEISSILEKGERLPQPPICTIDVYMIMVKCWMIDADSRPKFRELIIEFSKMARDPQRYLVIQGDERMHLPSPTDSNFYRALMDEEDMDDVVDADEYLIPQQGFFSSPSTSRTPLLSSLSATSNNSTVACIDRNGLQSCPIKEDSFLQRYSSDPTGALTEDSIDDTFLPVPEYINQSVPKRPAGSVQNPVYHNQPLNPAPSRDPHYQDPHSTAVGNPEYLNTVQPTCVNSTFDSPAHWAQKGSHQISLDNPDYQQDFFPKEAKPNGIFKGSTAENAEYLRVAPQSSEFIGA

[5] = test system: P19 EC cells
[6] = test system: mouse P19 cell
[7] = test system: p140 trk tyrosine kinase NGF-receptor; conditions: compound interacts with NGF
[8] = test system: common neurotrophin receptor p75NTR; conditions: compound interacts with NGF
[9] = test system: human embryonic stem cells
[10] = test system: ES cells; conditions: co-treatment with retinoic acid
[11] = test system: ES cells
[12] = test system: ERKs
[13] = test system: JNKs
[14] = test system: 3T3-F442A, 3T3-L1, Ob1771 and embryonic stem cells
[15] = test system: C3H10T1/2 mesenchymal stem cells; conditions: induced with 200 nM insulin, 1 μM BRL49653 and LGD1069; lipogenesis, oil red O-staining, AP2 and LPL expression
[16] = 1 μM on the first day of the differentiation process

p140 trk tyrosine kinase NGF-receptor (Rattus norvegicus, UniProt P35739), sequence (P35739 33-799): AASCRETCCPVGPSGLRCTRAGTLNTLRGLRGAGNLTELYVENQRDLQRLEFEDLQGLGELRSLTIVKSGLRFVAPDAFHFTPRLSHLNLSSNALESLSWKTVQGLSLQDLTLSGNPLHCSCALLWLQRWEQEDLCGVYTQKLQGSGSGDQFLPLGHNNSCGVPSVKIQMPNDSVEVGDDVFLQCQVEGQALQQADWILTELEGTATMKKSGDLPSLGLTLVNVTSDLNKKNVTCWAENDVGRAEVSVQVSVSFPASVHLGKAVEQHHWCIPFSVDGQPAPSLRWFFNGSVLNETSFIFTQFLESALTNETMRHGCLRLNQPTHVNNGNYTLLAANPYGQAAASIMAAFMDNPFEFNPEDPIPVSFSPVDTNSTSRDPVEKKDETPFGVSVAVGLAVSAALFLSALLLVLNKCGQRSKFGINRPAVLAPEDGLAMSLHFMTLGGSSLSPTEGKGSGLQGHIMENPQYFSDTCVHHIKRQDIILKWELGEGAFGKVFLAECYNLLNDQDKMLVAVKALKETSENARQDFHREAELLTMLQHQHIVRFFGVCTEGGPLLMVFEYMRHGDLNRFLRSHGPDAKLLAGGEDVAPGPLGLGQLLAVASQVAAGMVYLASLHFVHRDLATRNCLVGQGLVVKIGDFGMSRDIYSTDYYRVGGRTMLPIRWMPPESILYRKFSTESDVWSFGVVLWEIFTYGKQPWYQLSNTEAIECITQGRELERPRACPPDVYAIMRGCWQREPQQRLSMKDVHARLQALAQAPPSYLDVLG

Compound: CC(C)(C)c1cc(/C=C(\C#N)C(N)=S)cc(C(C)(C)C)c1O [AG-879]
- inhibition of PDGF receptor phosphorylation [1]: no inhibition
- IC50 [2]: 10 µM
- NGF-induced neurite outgrowth in PC12 cells [3]: inhibits NGF-induced neurite outgrowth
- inhibition of EGF receptor phosphorylation [4]: no inhibition

Compound: Nc1ncnc2c1ncn2C(C=O)OC(C=O)CO (centres unmarked) [AdOx, Adenosine dialdehyde]
- expression levels of the neuronal markers β-tubulin, NeuroD1 and mash1 [5, 16]: decreased
- number of neurites observed [5, 16]: decreased

Compound: CCCCCCCCCC(=O)N[C@H](CN1CCOCC1)[C@H](O)c1ccccc1 [D-PDMP, D-theo-1-phenyl-2-decanoylamino-3-morphlino-1-propanol]
- death of P19-derived neurons [5]: causing the death of P19-derived neurons
- cell death of undifferentiated P19 EC cells ([5]; 50 μM): without any indication of cell death
- proliferation of the undifferentiated P19 EC cells ([5]; 50 μM, added 3 days prior to retinoic acid and maintained): reduced
- neurite elongation ([5]; 50 μM, neurites present but failed to develop correctly): abolished neurite elongation
- neurite outgrowth ([5]; P19 EC in-vitro neuronal differentiation model): inhibited neurite outgrowth

Compound: Cc1cc(S(C)(=O)=O)c(S(C)(=O)=O)cc1C(=O)NC(=N)N [EMD87580]
- cardiomyocyte differentiation of mouse P19 embryonic carcinoma cells ([6]; during DMSO induction): inhibit the cardiomyocyte differentiation

Compound: COC(=O)[C@]1(O)C[C@H]2O[C@]1(C)n1c3ccc(O)cc3c3c4c(c5c6ccccc6n2c5c31)C(=O)NC4=O [Indocarbazostatin C]
- NGF-induced neuronal differentiation of PC12 cells [3]: inhibitors

Compound: COC(=O)[C@]1(O)C[C@H]2O[C@]1(C)n1c3ccc(O)c(N)c3c3c4c(c5c6ccccc6n2c5c31)C(=O)NC4=O [Indocarbazostatin D]
- NGF-induced neuronal differentiation of PC12 cells [3]: inhibitors

Compound: COC(=O)[C@@]1(O)C[C@H]2O[C@]1(C)n1c3ccccc3c3c4c(c5c6ccccc6n2c5c31)C(=O)NC4 [K-252a]
- NGF-induced neuronal differentiation of PC12 cells [3]: effective inhibitors

Compound: C[C@]12O[C@H](C[C@]1(O)C(=O)O)n1c3ccccc3c3c4c(c5c6ccccc6n2c5c31)CNC4=O [K-252b]
- NGF-induced neuronal differentiation of PC12 cells [3]: effective inhibitors

Compound: Cn1c2ccc(NC(=O)c3ccccc3)cc2c(=O)n2nc(C(=O)O)cc12 [PD90780, 7-(Benzolylamino)-4,9-Dihydro-4-Methyl-9-Oxo-Pyrazolo[5,1-b]Quinazoline-2-Carboxlic Acid]
- NGF-induced neuronal differentiation of PC12 cells [3]: abolishes
- binding of NGF to p140 trk tyrosine kinase NGF-receptor [7]: preventing its binding
- binding of NGF to p75NTR [8]: preventing its binding

Compound: COc1cccc(-c2cc(=O)c3ccccc3o2)c1N [PD98059, 2″-Amino-3″-Methoxyflavone]
- concentration at which reported as inhibitor of human embryonic stem cell cardiomyocyte differentiation [9]: 5 to 25 µM
- NGF-induced neurite formation in PC12 cells [3]: completely blocks
- cell viability of PC12 cells [3]: without affecting cell viability
- adipocyte formation from ES cells [10]: prevents adipocyte formation
- expression of adipogenic markers in ES cells [10]: prevented
- adipocyte formation from ES cells ([10]; listed as PD68059): prevented
- differentiation of ES cells into neuron or cardiomyocytes [11]: no effect

Compound: Cn1cc(C2=C(c3ccc(Cl)cc3Cl)C(=O)NC2=O)c2ccccc21 [SB216763]
- concentration at which reported as inhibitor of human embryonic stem cell cardiomyocyte differentiation [9]: 10 to 25 µM

Compound: C[S+]([O-])c1ccc(-c2nc(-c3ccc(F)cc3)c(-c3ccncc3)[nH]2)cc1 (centres unmarked) [SB 203580, 4-(4″-fluorophenyl)-2-(4″-methylsulfinylphenyl)-5-(4″-pyridyl) imidazole]
- number of cardiomyocytes from human embryonic stem cells ([9]; 15 μM): dramatically reduces the number of cardiomyocytes
- cardiomyocyte differentiation of human embryonic stem cells ([9]; 25 μM): completely blocked
- generation of cardiomyocytes from human embryonic stem cells ([9]; 1-10 μM): enhances the generation of cardiomyocytes
- P19 cell differentiation into cardiomyocytes ([6]; 10 μM, cardiac-actin by immuno-histochemistry, cardiac-actin and atrial natriuretic peptide by RT-PCR): prevent mouse P19 cell differentiation into cardiomycocytes
- effect on the activities of ERKs [12]: no significant effect
- effect on the activities of JNKs [13]: no significant effect

Compound: CC(C)(C)NC(=O)[C@@H]1CN(Cc2cccnc2)CCN1C[C@@H](O)C[C@@H](Cc1ccccc1)C(=O)N[C@H]1c2ccccc2C[C@H]1O [indinavir]
- adipocyte differentiation, by cell model [14]: inhibited the differentiation of only 3T3-L1 and 3T3-F442A cells

Compound: Cc1cccc(C)c1OCC(=O)N[C@@H](Cc1ccccc1)[C@@H](O)C[C@H](Cc1ccccc1)NC(=O)[C@H](C(C)C)N1CCCNC1=O [lopinavir]
- adipocyte differentiation, by cell model [14]: inhibited adipocyte differentiation in all cells tested

Compound: Cc1c(O)cccc1C(=O)N[C@@H](CSc1ccccc1)[C@H](O)CN1C[C@H]2CCCC[C@H]2C[C@H]1C(=O)NC(C)(C)C [nelfinavir]
- adipocyte differentiation, by cell model [14]: inhibited adipocyte differentiation in all cells tested
- adipocyte differentiation of mesenchymal stem cells [15]: reduced the adipocyte differentiation

Compound: CC(C)c1nc(CN(C)C(=O)N[C@H](C(=O)N[C@@H](Cc2ccccc2)C[C@H](O)[C@H](Cc2ccccc2)NC(=O)OCc2cncs2)C(C)C)cs1 [ritonavir]
- adipocyte differentiation, by cell model [14]: inhibited the differentiation of only 3T3-L1 and 3T3-F442A cells
- adipocyte differentiation of mesenchymal stem cells [15]: reduced the adipocyte differentiation

Compound: CC(C)(C)NC(=O)[C@@H]1C[C@@H]2CCCC[C@@H]2CN1C[C@@H](O)[C@H](Cc1ccccc1)NC(=O)[C@H](CC(N)=O)NC(=O)c1ccc2ccccc2n1 [saquinavir]
- adipocyte differentiation, by cell model [14]: inhibited the differentiation of only 3T3-L1 and 3T3-F442A cells
- adipocyte differentiation of mesenchymal stem cells [15]: reduced the adipocyte differentiation
